Test results published in PubChem BioAssay (NCI).
Where “and” joins values, the source holds several entries; their conditions need not be identical. Identical values can stand only once.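 Dose response: 5 concentrations. Exposure: 48 h. Format: 96-well plates. Endpoint: linear interpolation; highest concentration if not reached. GI50: concentration for 50% inhibition of growth. The concentration for full growth arrest is given as TGI.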

Columns and labels:
Assay in all cases: NCI tumour cell line growth inhibition, 48 h
A498 renal = system: A498 renal
BT-549 breast = system: BT-549 breast
HOP-62 NSCLC = system: HOP-62 NSCLC
NCI-H460 lung = system: NCI-H460 lung
NCI-H522 lung = system: NCI-H522 lung
SK-MEL-2 melanoma = system: SK-MEL-2 melanoma
T-47D breast = system: T-47D breast
HL-60(TB) leukemia = system: HL-60(TB) leukemia
K-562 leukemia = system: K-562 leukemia
MCF7 breast = system: MCF7 breast
MOLT-4 leukemia = system: MOLT-4 leukemia

Compound | TGI (A498 renal) | TGI (BT-549 breast) [µM] | TGI (HOP-62 NSCLC) [µM] | TGI (NCI-H460 lung) [µM] | TGI (NCI-H522 lung) [µM] | TGI (SK-MEL-2 melanoma) [µM] | TGI (T-47D breast) [µM] | TGI (HL-60(TB) leukemia) | TGI (K-562 leukemia) [µM] | TGI (MCF7 breast) [µM] | TGI (MOLT-4 leukemia) [µM] | GI50 (A498 renal) [µM] | GI50 (HL-60(TB) leukemia) [µM] | GI50 (HOP-62 NSCLC) [µM] | GI50 (K-562 leukemia) [µM] | GI50 (MCF7 breast) [µM] | GI50 (MOLT-4 leukemia) [µM] | GI50 (NCI-H460 lung) | GI50 (NCI-H522 lung)
CCN(CCCN(CC)C(=O)N[C@@H](Cc1ccccc1)C(=O)NC)C(=O)N[C@@H](Cc1ccccc1)C(=O)NC | > 100 µM | > 100 | > 100 | > 100 | > 100 | > 100 | > 100 | – | – | – | – | – | – | – | – | – | – | – | –
CN(C)c1ccc(/C(Br)=C2\OC(=O)c3ccccc32)cc1 | > 100 µM | – | > 100 | > 100 | – | > 100 | > 100 | > 100 µM | > 100 | > 100 | > 100 | – | – | – | – | – | – | – | –
CC(=O)/C(=C/n1c(=S)sc2ccccc21)C(=O)Nc1ccccc1C | > 100 µM | > 100 | > 100 | > 100 | – | > 100 | > 100 | > 100 µM | – | > 100 | > 100 | – | – | – | – | – | – | – | –
CN1CCN(C(=S)N(C)C(=O)c2ccc(Cl)cc2)CC1 | – | > 100 | – | > 100 | > 100 | > 100 | > 100 | > 100 µM | > 100 | > 100 | > 100 | – | – | – | – | – | – | – | –
CC(C)(CO)N1C(=O)c2ccccc2C1(O)c1ccc(Cl)cc1 (centres undefined) | – | > 100 | > 100 | > 100 | > 100 | > 100 | > 100 | > 100 µM | > 100 | > 100 | > 100 | – | – | – | – | – | – | – | –
Cc1nc2ccc([N+](=O)[O-])cc2c(=O)n1C(=S)Nc1cccc(Cl)c1 | 45.9 µM | – | 44.6 | 52.6 | – | 23.9 | 69.6 | 50.6 µM | 98.5 | 49.5 | > 100 | – | – | – | – | – | – | – | –
COC1C=CC23c4cc5c(cc4C(O)OC2CN(C)C3C1)OCO5 (centres undefined) | 9.89 µM | – | 17.9 | 56.7 | 7 | – | – | 3.17 µM | 14.3 | – | 5.32 | – | – | – | – | – | – | – | –
CC(C)=CC1C(C(=O)O)C1(C)C (centres undefined) | > 34.8 µM | – | > 750 | > 750 | > 750 | > 750 | – | > 750 µM | > 750 | > 750 | > 750 | – | – | – | – | – | – | – | –
CC(=O)CC(=O)c1cc2c(=O)oc(C)cc2oc1=O | – | > 37.5 | > 37.5 | > 37.5 | > 37.5 | > 37.5 | – | > 37.5 µM | > 37.5 | > 37.5 | > 37.5 | – | – | – | – | – | – | – | –
N#Cc1c(OCCF)c2ccccc2n2c1nc1ccccc12 | > 100 µM | – | > 100 | > 100 | > 100 | > 100 | > 100 | > 100 µM | > 100 | > 100 | > 100 | – | – | – | – | – | – | – | –
O=C(OCc1ccccc1)OOC(=O)OCc1ccccc1 | > 100 µM | – | > 100 | > 100 | > 100 | > 100 | – | > 100 µM | > 100 | – | > 100 | – | – | – | – | – | – | – | –
C[C@]12CC/C(=N\O)C=C1CC[C@@H]1[C@@H]2CC[C@]2(C)C(=N/O)/C(=C/c3cccnc3)C[C@@H]12 | 44.4 µM | 54.3 | 85.5 | 22.7 | 45.2 | 97.8 | – | 4.12 µM | 27.7 | 29.2 | 4 | – | – | – | – | – | – | – | –
c1ccc(N=c2snc(-c3ccccc3)s2)cc1 | > 100 µM | – | > 100 | > 100 | > 100 | > 100 | – | > 100 µM | > 100 | – | > 100 | – | – | – | – | – | – | – | –
COc1cc([C@@H]2c3cc4c(cc3C[C@H]3COC(=O)[C@@H]32)OCO4)cc(OC)c1OC | 0.00969 µM and 0.0642 µM | – | 40.5 | < 0.005 | 0.00689 | > 2.32 | – | 0.00526 µM and 0.0126 µM | 21.9 | 2.03 | 0.12 | 0.0023 | 0.00202 | 0.00577 | 0.00404 | 0.00506 | 0.00428 | 0.00327 µM and < 0.005 µM | 0.003 µM and 0.00924 µM
O=C(CCc1ccc(O)cc1)c1c(O)cc(O)cc1OC1OC(CO)C(O)C(O)C1O (centres undefined) | > 100 µM | – | > 100 | – | – | > 100 | > 100 | – | > 100 | – | – | – | – | – | – | – | – | – | –
CC(C)CCNC(=O)c1ccc(CNC(=O)/C=C/c2ccc(OCc3ccccc3)cc2)cc1 | > 100 µM | – | > 100 | > 100 | – | > 100 | > 100 | – | > 100 | > 100 | > 100 | – | – | – | – | – | – | – | –
CCn1c(=O)c2c3cc(O)ccc3oc2c2ccc(O)cc21 | 55.5 µM | 76.7 | > 100 | > 100 | 63.9 | – | 36.5 | – | > 100 | > 100 | > 100 | – | – | – | – | – | – | – | –
CC1CC(C#N)=C2NCCCCN2C1=O (centres undefined) | – | > 100 | > 100 | > 100 | > 100 | > 100 | > 100 | > 100 µM | > 100 | > 100 | > 100 | – | – | – | – | – | – | – | –

Compound | TGI (A498 renal) | TGI (BT-549 breast) [µM] | TGI (HOP-62 NSCLC) [µM] | TGI (NCI-H460 lung) [µM] | TGI (NCI-H522 lung) [µM] | TGI (SK-MEL-2 melanoma) [µM] | TGI (T-47D breast) [µM] | TGI (HL-60(TB) leukemia) | TGI (K-562 leukemia) [µM] | TGI (MCF7 breast) [µM] | TGI (MOLT-4 leukemia) [µM] | GI50 (A498 renal) [µM] | GI50 (HL-60(TB) leukemia) [µM] | GI50 (HOP-62 NSCLC) [µM] | GI50 (K-562 leukemia) [µM] | GI50 (MCF7 breast) [µM] | GI50 (MOLT-4 leukemia) [µM] | GI50 (NCI-H460 lung) | GI50 (NCI-H522 lung)
N#CSCc1cccc(Nc2cc(=O)[nH]c(=O)[nH]2)c1 | > 100 µM | > 100 | > 100 | > 100 | > 100 | > 100 | > 100 | – | > 100 | 38.9 | – | – | – | – | – | – | – | – | –
COc1ccc(CNc2nc3ccc(C(F)(F)F)cc3nc2-c2ccccc2)cc1OC | – | – | > 100 | > 100 | – | > 100 | – | > 100 µM | – | – | > 100 | – | – | – | – | – | – | – | –
COc1cccc(C2c3cc4c(cc3OC(N3CCCC3)C2C)OCO4)c1OC (centres undefined) | – | – | 26.7 | 12.5 | 25.5 | 17.1 | 39.3 | – | 30.5 | > 100 | 10.7 | – | – | – | – | – | – | – | –
CC1=C2c3ccccc3N(C(=O)/C=C/C(=O)O)[C@H]2[C@H]2C(=O)OC(=O)[C@H]2C1 | > 10 µM | – | > 10 | > 10 | > 10 | > 10 | > 10 | > 10 µM | – | > 10 | > 10 | – | – | – | – | – | – | – | –
O=C(O)Cc1ccc2nc(COC(=O)c3ccccc3)sc2c1 | > 100 µM | > 100 | > 100 | > 100 | > 100 | > 100 | > 100 | – | > 100 | > 100 | – | – | – | – | – | – | – | – | –
COC(=O)C1CC(C=[N+](C)C)=C(SC)N1 (centres undefined) | > 100 µM | > 100 | > 100 | > 100 | > 100 | > 100 | > 100 | – | > 100 | > 100 | > 100 | – | – | – | – | – | – | – | –
CC1=CC(=O)N(n2c(C)n[nH]c2=O)C1=O | > 100 µM | > 100 | – | > 100 | > 100 | > 100 | > 100 | – | > 100 | > 100 | > 100 | – | – | – | – | – | – | – | –
O=C(/C=C/c1cccs1)c1ccc(Cl)cc1 | > 100 µM | – | > 100 | > 100 | – | > 100 | > 100 | 70.5 µM | – | > 100 | 48.9 | – | – | – | – | – | – | – | –
C=CCCCC12CCCc3cccc(c31)NC2=O (centres undefined) | 45.6 µM | – | > 100 | 33.8 | 31.3 | 55.5 | – | 48.7 µM | 78.3 | – | 55.1 | – | – | – | – | – | – | – | –
O=c1nc2c(c(-c3cccc(Cl)c3)[nH]1)COC/C2=C\c1cccc(Cl)c1 | > 100 µM | > 100 | > 100 | > 100 | > 100 | > 100 | > 100 | – | > 100 | > 100 | > 100 | – | – | – | – | – | – | – | –
O=C1OC[C@@H]2Cc3c([nH]c4ccccc34)[C@@H](c3ccc(O)cc3)N12 | > 81 µM | – | > 84.6 | 81.4 | 77.6 | 67.6 | > 100 | > 81.7 µM | > 75.2 | > 100 | > 75.3 | – | – | – | – | – | – | – | –
O=C1C(Cl)N(c2ccccc2)C1c1c[nH]c2ccccc12 (centres undefined) | – | – | > 100 | > 100 | > 100 | > 100 | – | > 100 µM | > 100 | – | > 100 | – | – | – | – | – | – | – | –
Cc1nc(Cl)c(CBr)c(Cl)n1 | 24.7 µM | 0.747 | 4.03 | 8.38 | 1.15 | 4.68 | 4.5 | – | 0.887 | 2.17 | 1.09 | – | – | – | – | – | – | – | –
CC(=O)Nc1ccc(Cl)c(Cl)c1 | – | – | > 100 | > 100 | > 100 | – | – | – | > 100 | – | > 100 | – | – | – | – | – | – | – | –
COc1ccc(NC2Oc3cc4c(cc3C(c3cc(OC)c(OC)c(OC)c3)C2C)OCO4)cc1 (centres undefined) | 0.92 µM | > 87.9 | 6.98 | > 48.5 | 2.45 | > 100 | – | 2 µM | > 100 | > 41.3 | > 100 | – | – | – | – | – | – | – | –
CCOC(=O)C(=O)N1C(C)=C(C(=O)OCC)CC(C(=O)OCC)=C1C | > 100 µM | – | > 100 | > 100 | > 100 | > 100 | > 100 | > 100 µM | > 100 | > 100 | > 100 | – | – | – | – | – | – | – | –
CN1CN(c2ccccc2)C2(CCN(CCCC3(c4cccs4)OCCO3)CC2)C1=O | > 100 µM | – | > 100 | > 100 | > 100 | > 100 | > 100 | > 100 µM | > 100 | > 100 | > 100 | – | – | – | – | – | – | – | –
C(=Nc1ccc(-c2nc3ccccc3s2)cc1)c1ccco1 | 99.3 µM | > 100 | > 100 | > 100 | > 100 | > 100 | > 100 | – | > 100 | – | > 100 | – | – | – | – | – | – | – | –
